Where “and” joins values, the source holds several entries; their conditions need not be identical. Identical values can stand only once. Calls of active or inactive are those of the source.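 The calls were made as follows: active = compounds raising the signal whose fitted half-maximal concentration is at or below their top tested dose (cut at about 25 µM in these data); inconclusive = flat fit at 30 to 70% activity, or a poor fit; inactive = the rest.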

The assay has as its system INS-1E rat beta cells, no cytokines, CellTiter-Glo ATP, 48 h. Kind of assay: ATP level change in INS-1E without cytokines, dose response, counter-screen for beta-cell apoptosis protection project, INS-1E rat cells, ATP luminescence, cherry pick (AID 463229).
Usually AC50 stands for the concentration at which the activity in the assay is half-maximal. Take `COc1ccc(C)cc1Nc1n[n+](-c2ccccc2)c(-c2ccc(OC)c(OC)c2OC)s1`: the half-maximal activity concentration (AC50) is 14.5 µM.
Next, `COc1ccc2c(c1)N(C)/C(=C/c1cccc[n+]1C)S2`: 1.49 µM; `Nc1nc(-c2ccccn2)nc(N)c1Cc1ccc(Cl)cc1Cl`: 11.9 µM.
Consider `CCC1=NN(C(=O)c2cccc(Br)c2)C(O)(c2ccc(Br)cc2)C1` (stereo not given), for which the AC50 was 9.79 µM.
Regarding `CCOc1ccc(-n2c(-c3ccccc3)c[n+]3c2CCCCC3)cc1`, the concentration at half-maximal activity (AC50) was 0.85 µM.
As for `O=S(=O)(C/C(=C/CO)S(=O)(=O)c1ccccc1)c1ccccc1`, the figure is 10.9 µM; as for `COc1ccc(/C=C/c2cc(-c3ccc(C)cc3)o[n+]2C)cc1`, 0.91 µM; as for `CC(C)(C)C1CCC2(CC1)C(C#N)=C(SCC(=O)NC1CCCCC1)NC(=O)C2C#N` (stereo not given), 15.9 µM.
As for `CCOc1cc(-c2sc(Nc3cc(C)ccc3OC)n[n+]2-c2ccccc2)ccc1OC`, the figure is 15 µM.
As for `Cc1ccc(S(=O)(=O)/N=C2/C=C(Sc3ncn[nH]3)C(=O)c3ccccc32)cc1`, the figure is 8.08 µM; as for `COc1ccc(O)c(/C=N/NC(=S)Nc2cccnc2)c1`, 15.6 µM.
For the compound `COc1cc(-c2nc3ccc(C)cn3c2NCc2ccccc2)ccc1-c1cccc(Cl)c1`, the half-maximal activity concentration (AC50) was 4.66 µM.
For `CCN(CC)S(=O)(=O)c1cc([N+](=O)[O-])ccc1NNC(=O)Nc1ccc(Cl)c(Cl)c1`, the concentration at half-maximal activity (AC50) was 6.54 µM.
Next, `O=C(c1cc(COc2ccc3ncccc3c2)on1)N1CCCCCC1`: 8.02 µM; `CCCCCCCCn1c2c(c(=N)c3c1CCC3)CCCC2`: below 0.195 µM.
Regarding `CC(=O)Oc1c(C)cc(Cl)cc1C(=O)Nc1ccc([N+](=O)[O-])cc1Cl`, the AC50 is 1.43 µM.
As for `Cc1nn(C)c(C)c1CN(Cc1nc(CCC(C)C)no1)C(C)C`, the figure is 4.22 µM; as for `COC(=O)c1c(C)oc2ccc(N(C(=O)c3ccncc3)S(=O)(=O)c3ccc(C)cc3C)cc12`, 5.76 µM; as for `CCn1c(-c2ccccc2)c(C(=O)CCl)c2ccccc21`, 11.6 µM.
As for `CCC(CO)Oc1cc(NCc2ccc(C(C)(C)C)cc2)c2ncn(C(C)C)c2c1` (stereo not given), the figure is 2.45 µM; as for `NS(=O)(=O)c1ccc(N=Nc2ccc(O)c3ncccc23)cc1`, 8.05 µM; as for `O=C(N/N=C/c1ccc([N+](=O)[O-])o1)c1cc2ccccc2o1`, 6.22 µM.
In the case of `COc1cc(C(=O)Oc2c(CN3CCOCC3)cc(Cl)c3cccnc23)cc(OC)c1OC`, the AC50 was 13.3 µM.
Next, `COc1ccc(CCNc2ncnc3sc(C)cc23)cc1OC`: 1.33 µM.
Next, `CCCCCc1nc2c(c(=O)c3ccccc3n2C)c(=O)n1C1CCCCCC1`: 6.84 µM.
As for `CCS(=O)(=O)c1ncc(Cl)c(C(=O)Nc2ccc(S(=O)(=O)N3CCCC(C)C3)cc2)n1` (stereo not given), the AC50 was 6.96 µM.
For the compound `Cc1nc(NCCc2ccc(S(N)(=O)=O)cc2)c2c(C)c(C)sc2n1`, the AC50 was 6.2 µM.
As for `N=c1c2c(n(Cc3ccc(Cl)c(Cl)c3)c3c1CCC3)CCCC2`, the figure is 3.57 µM; as for `O=S(=O)(NCC1CCCO1)c1ccc(-c2ccc(S(=O)(=O)NCC3CCCO3)cc2)cc1` (stereo not given), 4.95 µM; as for `O=C(N/N=C\c1c(O)ccc2ccccc12)c1ccc(S(=O)(=O)N2CCCCC2)cc1`, 1.11 µM.
Next, `C=CCn1c(C)c(/C=C/c2cc[n+](C)cc2)c2ccccc21`: 5.99 µM; `Cc1cc(/C=N/n2cnnc2)c(C)n1-c1ccc(OCc2ccc(Cl)cc2Cl)cc1`: 1.71 µM.
As for `C/C(=N\NC(=O)C(=O)Nc1cccc(Cl)c1)c1ccncc1`, the figure is 6.53 µM; as for `Clc1ccc2nnnc(-c3ccccc3)c2c1`, 7.48 µM.
On to `CCc1ccc(S(=O)(=O)/N=C2\C=C(Nc3ccc(C(=O)O)cc3)C(=O)c3ccccc32)cc1`, for which the AC50 was 14.7 µM.
As for `CC(C)C[C@H]1CN=C(Nc2ccccc2)N1CCc1ccc(F)cc1`, the figure is > 26 µM (inactive); as for `CCc1ccc(-c2nn(-c3ccccc3)cc2CSC(=N)N)cc1`, 8.32 µM.
As for `O=C1C(=O)c2ccc(-c3ccccc3)cc2-c2ccccc21`, the figure is 1.1 µM.
With `CCOc1ccc(S(=O)(=O)N(C)c2ccc(OCC(=O)Nc3nc4ccccc4s3)cc2)cc1`, the AC50 was 7.9 µM.
As for `CC(C)(C)c1ccc(C2CC2C(=O)N/N=C\c2ccc[nH]2)cc1` (stereo not given), the figure is 0.987 µM; as for `COc1cc(OC)c2cc(C(=O)N/N=C/c3ccccc3O)[nH]c2c1`, 8.48 µM; as for `Cc1ccc(N=Cc2c(C)[nH]n(-c3nc4ccccc4[nH]3)c2=O)cc1`, 1.85 µM.
As to `CCc1ccc(C(=O)NNc2cc(Cl)ccc2Cl)cc1`, the AC50 is 8 µM.
As for `Cc1cc(N/N=C/c2c(O)ccc3ccccc23)nc(-c2ccccc2O)n1`, the figure is 11.7 µM.
For the compound `COCc1ccc(O)c2ncccc12`, the AC50 is 15.9 µM.
Next, `N=c1c2c(ncn1CCCO)Oc1ccc3ccccc3c1C2c1ccccc1` (stereo not given): > 26 µM (inactive).
As for `C#Cc1ccc([C@@H]2C=C(C(=O)N3CCN(Cc4ccccc4)CC3)O[C@H](OCCCCO)C2)cc1`, the figure is 2.13 µM.
Regarding `Cc1ccccc1/C=N/Nc1ccnc2cc(Cl)ccc12`, the AC50 was 6.91 µM.
As for `Cn1ncnc2c(=O)n(C)c(=O)nc1-2`, the figure is 1.48 µM; as for `CCCCCCCCCC[N+](C)(C)CC/C=C1/c2ccccc2Sc2ccc(Cl)cc21`, 7.99 µM; as for `c1ccc(Nc2nc(NCc3ccco3)c3ccccc3n2)cc1`, 8.02 µM.
As for `CCOC(=O)c1cnc(-n2nc(C)cc2C)nc1NC(C)c1ccccc1` (stereo not given), the figure is 13.7 µM; as for `NC1=C(Br)C(=O)c2ccccc2C1=O`, 18.2 µM; as for `CC(C)Oc1ccc(S(=O)(=O)N2CCCCC2)cc1NC(=O)CN1CCCC1c1cccs1` (stereo not given), 6.59 µM.
As for `CC(C)CN(C(=O)COC(=O)C12CC3CC(CC(Cl)(C3)C1)C2)c1c(N)n(Cc2ccccc2)c(=O)[nH]c1=O`, the figure is 6.97 µM.
Take `CCN1CCN(Cc2ccc(NC(=O)c3ccc(C)c(NC(=O)C(=O)c4c[nH]c5ccccc45)c3)cc2C(F)(F)F)CC1`: the AC50 is 13.8 µM and 7.23 µM.
As for `COc1ccc(C(=O)NC(=S)NNC(=O)c2cnccn2)cc1`, the figure is 5.21 µM; as for `C/C(=N\NC(=O)c1cc(-c2cccnc2)nc2ccccc12)c1ccccc1O`, 5.74 µM.
Next, `Oc1c(CN2CCN(c3ccc(F)cc3)CC2)cc(Cl)c2cccnc12`: 4.27 µM.
Next, `Cc1c2ccncc2c(C)c2c1[nH]c1ccccc12`: 5.21 µM; `COc1cc(CN2CCN(c3cc(C)ccc3C)CC2)ccc1O`: 7.21 µM.
In the case of `C=C(C)C(=O)OCC(O)COc1ccc(C(C)(C)c2ccc(OCC(O)COC(=O)C(=C)C)cc2)cc1` (stereo not given), the AC50 is 19.2 µM.
For the compound `Oc1ccc(N=Nc2nccs2)c(O)c1`, the half-maximal activity concentration (AC50) was 6.64 µM.
As for `CCOc1ccc2nc(NC(=O)c3ccccn3)sc2c1`, the half-maximal activity concentration (AC50) was 6.67 µM.
As for `CCS(=O)(=O)c1ncc(Cl)c(C(=O)Nc2ccc(S(=O)(=O)N(C)c3ccccc3)cc2)n1`, the figure is 6.63 µM; as for `CN1/C(=C\C(=O)c2ccco2)C(C)(C)c2ccccc21`, 7.58 µM.
As for `Cc1cc(C)c2sc(NNC(=O)c3ccc(S(=O)(=O)N4CCc5ccccc5C4)cc3)nc2c1`, the AC50 was 3.38 µM.
Turning to `NC(N)=N/N=C/c1ccc(N(c2ccccc2)c2ccccc2)cc1`, the AC50 was 7.36 µM.
Next, `CC(C)(C)c1cc(C(=O)N/N=C/c2ccc([N+](=O)[O-])s2)n[nH]1`: 6.84 µM; `COc1ccc(C(=O)NCC(=O)N/N=C/c2ccc([N+](=O)[O-])s2)cc1OC`: 13.5 µM; `N=c1c2c(-c3ccccc3)c(-c3ccccc3)n(Cc3ccco3)c2ncn1Cc1ccccc1`: 7.01 µM.
`Cc1cc(C)c(CN2CCN(C(=O)Cn3cnc4c(OCc5ccccc5)ncnc43)CC2)c(C)c1`: the AC50 was 6.91 µM.
Next, `COc1ccccc1C(CCNCc1ccc(N(C)C)cc1)c1ccc(OC(C)C)cc1` (stereo not given): 9.78 µM; `Cc1ccc(Nc2c3c(nc4ccccc24)CCC3)cc1`: 16 µM; `CC1CCC(C(C)C)C(OC(=O)Cn2c(-c3ccc(Br)cc3)[n+](C)c3ccccc32)C1` (stereo not given): 3.86 µM and 4.4 µM.
As for `COc1cccc(COc2cc3ccccc3nc2C)c1`, the figure is 3.51 µM.
Regarding `CCOC(=O)C1CCN(Cc2ccc(O)c3ncccc23)CC1`, the AC50 was 12.5 µM.
As for `Cn1ncc2c(N3CCN(c4ccc(Cl)c(Cl)c4)CC3)ncnc21`, the figure is 3.37 µM; as for `Oc1ccc(CNc2ccccc2)c2cccnc12`, 22.8 µM; as for `COc1ccccc1NC1=C(N2CCCCC2)C(=O)c2ccccc2C1=O`, 2.21 µM.
As for `Cc1ccc(C(C)C)c(OCc2nn(CC(=O)c3ccc(OC(F)F)cc3)c3[n+]2CCCCC3)c1`, the figure is 4.43 µM.
As for `CCn1c(=O)c(C(=O)Nc2nc3ccccc3[nH]2)c(O)c2ccccc21`, the AC50 was 6.03 µM.
Regarding `CCCSc1nsc(NC(=O)Nc2ccc(F)cc2F)n1`, the AC50 was 6.99 µM.
In the case of `CCC(=O)NC(c1cc(Cl)c2cccnc2c1O)C1CC1` (stereo not given), the AC50 is 6.34 µM.
Next, `COC(=O)[C@H](CC(C)C)N(Cc1ccccc1)S(=O)(=O)N(Cc1ccc(OC)cc1)[C@@H](CC(C)C)C(=O)OC`: 5.08 µM; `Cc1ccc(-n2c(-c3ccccc3)c[n+]3c2CCc2ccccc2-3)c(C)c1`: 1.91 µM.
Take `Cc1ccc([N+](=O)[O-])cc1N(CC(=O)Nc1ccc(S(=O)(=O)Nc2cccc(C(F)(F)F)c2)cc1)S(C)(=O)=O`: the AC50 was 4.1 µM.
Next, `O=C(COc1ccc([N+](=O)[O-])cc1)Nc1ccc(C(=O)NCc2cccnc2)cc1`: 0.369 µM.
As for `Cn1c(SCC(=O)N/N=C/c2ccc([N+](=O)[O-])s2)nnc1-c1ccccc1`, the figure is 5.11 µM; as for `CC(=O)c1cn(CCOc2cc(C)ccc2C)c2ccccc12`, 4.67 µM; as for `CCC1(c2ccc(F)cc2)NC(=O)N(CC(=O)Nc2ccc(-c3nc4ccc(C)cc4s3)cc2)C1=O` (stereo not given), 12.4 µM.
As for `CCN(CC)S(=O)(=O)c1ccc(Cl)c(C(=O)Nc2ccc(Cl)cc2[N+](=O)[O-])c1`, the figure is 7.97 µM.
`CC(=O)CSc1ccc(-c2nc3ccccc3[nH]2)cn1`: the AC50 was 6.38 µM.
Next, `C[C@H]1CCC/C=C/C2C[C@H](O)CC2[C@H](O)/C=C/C(=O)O1` (stereo not given in full): 0.94 µM.
Next, `Cc1cc(N/N=C/c2ccc(F)cc2)nc(-n2nc(C)cc2C)n1`: 20.1 µM.

For the origin of these results see PubChem BioAssay AID463229 (Broad Institute, 2010).
